Test results reported in US11406707B2, “STAT3 phosphorylation during graft-versus-host disease” (H. LEE MOFFITT CANCER CENTER AND RESEARCH INSTITUTE, INC., priority 2014, dated 2022).

Experiments:
iTregs and Tconvs = assay: iTreg and Tconv expansion from DC-allostimulated naive CD4+ T cells; type: cell-based, human
Description: To evaluate iTreg development, naive CD4^+ cells were isolated from nylon-wool-eluted T cells by magnetic-bead selection (Miltenyi Biotec), based on the positive expression of CD4 and lack of CD45RO, CD25, or both. In addition, CD127 staining of the naive CD4^+ cells was performed after the purification, to ensure depletion of natural Tregs from the cell product. Negligible amounts of CD127^-, CD25^Bright nTregs were observed after magnetic-bead purification. […] The T cells were harvested and surface stained on day 5 for CD3, -4, -25, and -127, followed by fixation and permeabilization (eBioscience), and then intracellular staining for Foxp3 [Liu, W., et al. (2006) J. Exp. Med. 203, 1701-1711; […]., et al. (2006) J. Exp. Med. 203, 1693-1700]. Tregs were characterized by gating on the live cells expressing surface CD3^+, CD4^+, and absence of CD127, followed by expression of Foxp3 and CD25^bright [Liu, W., et al. (2006) J. Exp. Med. 203, 1701-1711; […]., et al. (2006) J. Exp. Med. 203, 1693-1700]. The absolute number of iTregs and Tconv (CD4^+ CD25^-) cells was obtained by timed acquisition. The ratio of iTreg:Tconv was calculated based on the absolute number of each T-cell population.

TH17 cells = assay: Evaluation of TH17 responses (CD4+ IL-17A+ T cells, IL-17A ELISA); type: cell-based, human
Description: To optimize the detection of IL-17A producing cells, nylon-wool-purified T cells underwent CD4^+ magnetic-bead selection. The CD4^+ T cells were cultured in triplicate with allogeneic, mature moDCs (DC:T cell ratio 1:30, 1×10^6 T cells/1 ml medium in a 48-well plate, 37° C.) and treated with S3I-201 (50 or 100 μM) or DMSO. The medium was supplemented with IL-6 (10^5 IU/ml), TGF-β (4 ng/ml), and anti-IFN-γ mAb (10 μg/ml) to support TH17 growth. The T cells were harvested and stimulated with PMA/ionomycin for 5 h, with GolgiStop Protein Transport Inhibitor (BD Biosciences) added after 1 h of activation. TH17 cells were identified by surface CD3 and CD4 expression, followed by intracellular staining for IL-17A. The absolute number of IL-17A-producing CD4^+ T cells was obtained by timed acquisition.
The concentration of IL-17A was measured (anti-human IL-17A [homodimer] ELISA Ready-Set-Go; eBioscience) in the supernatant of identically prepared and drug-treated CD4 T-cell allo-MLRs (DC:T cell ratio 1:30, 1.5×10^5 T cells per 125 μl medium in a 96-well plate, 37° C.). After 5 days, PMA/ionomycin was added directly to the cultures and stimulated for 5 h. GolgiStop was omitted from the PMA/ionomycin activation step, to permit detection of IL-17A in the culture supernatants. The supernatants were collected, and the IL-17A protein concentration was measured in triplicate, per the manufacturer's instructions.

[1] = S3I-201 treatment of GVHD in vivo (B6 marrow +/- T-cells into Balb/c mice)
From the text: (§1) FIG. 7. B6 T-cell depleted marrow (+/− T-cells) were given to Balb/c mice. S3I-201 or vehicle was given by i.p. from day 0 to day +7 only. Mice were then followed for body weight (FIG. 7B), GVHD clinical scores (FIGS. 7C, 7D), and survival (FIG. 7A).
as §1, with “B6” for “FIG. 7. B6”, “7A). […] All of the GVHD control mice (i.e., TCD marrow+T-cells+vehicle) have since died of GVHD.” for “7A).”

[2] = S3I-201 50 or 100 μM, 5 day coculture with IL-6, TGF-β, anti-IFN-γ mAb

Cc1ccc(S(=O)(=O)OCC(=O)Nc2ccc(C(=O)O)c(O)c2)cc1 [S3I-201]
absolute number of iTregs (iTregs and Tconvs; S3I-201 25 μM and 50 μM, dose-dependent, day 5): significantly increased
number of iTregs compared with DMSO (iTregs and Tconvs; S3I-201 100 μM): significantly reduced
number of alloreactive Tconvs (iTregs and Tconvs; S3I-201, day 5): dramatically reduced
ratio of iTregs to Tconvs (iTregs and Tconvs; S3I-201, day 5): increased ratio
absolute numbers of CD4+, IL-17A+ T cells compared with DMSO (TH17 cells; [2]): significant reduction
frequency of CD4+, IL-17A+ T cells compared with DMSO (TH17 cells; [2]): significant reduction
IL-17A protein concentration in coculture supernatants (TH17 cells; S3I-201, 5 day coculture, ELISA): significant decrease
tolerability ([1]; 2.5 mg/kg i.p. day 0 to day +7): well tolerated
tolerability ([1]; 5 mg/kg i.p. day 0 to day +7): toxic
survival ([1]; S3I-201 i.p. day 0 to day +7, GVHD control mice all died): alive at day +53
